In patent publication US9499729B2, “Compositions and methods containing fluorine substituted olefins” (HONEYWELL INTERNATIONAL INC., priority 2006, dated 2016):

How the values were obtained:
[1] = Toxicity as stated by applicants (no method given)
[2] = Flammability / flammability limit (ASTM E-681); assay type: physicochemical
Protocol: Flammability is another important property for many applications. That is, it is considered either important or essential in many applications, including particularly in heat transfer and blowing agent applications, to use compositions which are of low flammability or are non-flammable. Thus, it is frequently beneficial to use in such compositions compounds which are nonflammable. As used herein, the term “nonflammable” refers to compounds or compositions which are determined to be nonflammable as determined in accordance with ASTM standard E-681, dated 2002, which is incorporated herein by reference. Unfortunately, many HFC's which might otherwise be desirable for used in refrigerant or foam blowing agent compositions are not nonflammable. For example, the fluoroalkane difluoroethane (HFC-152a) and the fluoroalkene 1,1,1-trifluorpropene (HFO-1243zf) are each flammable and therefore not viable for use in many applications.

[3] = Dissolution of silicone lubricant in the solvent; assay type: physicochemical; conditions: silicone oil added to a concentration of about 10 weight percent
Protocol: A compound of Formula II, namely, transHFCO-1233zd was transferred to a glass container. A silicon lubricant, particularly a high-viscosity (12,500 cP) silicone oil, was added to the transHFCO-1233zd solvent to a concentration of about 10 weight percent.
A compound of Formula II, namely, cisHFCO-1233zd is transferred to a glass container. A silicon lubricant, particularly a high-viscosity (12,500 cP) silicone oil is added to the cisHFCO-1233zd solvent to a concentration of about 10 weight percent.
A combination of transHFCO-1233zd and trans-1,2-dichloroethylene are prepared in transHFCO-1233zd:trans-1,2-dichloroethylene weight ratios of 25:75 and 50:50. Each combination is then added to a glass container. A silicon lubricant, particularly a high-viscosity (12,500 cP) silicone oil is added to each solvent to a concentration of about 10 weight percent.
A combination of cisHFCO-1233zd and trans-1,2-dichloroethylene are prepared in cisHFCO-1233zd:trans-1,2-dichloroethylene weight ratios of 25:75 and 50:50. Each combination is then added to a glass container. A silicon lubricant, particularly a high-viscosity (12,500 cP) silicone oil is added to each solvent to a concentration of about 10 weight percent.

[4] = Dissolution of synthetic PAG lubricant in the solvent; assay type: physicochemical; conditions: PAG lubricant ND-8; combinations in approximate weight ratios: /methanol 98:2, /pentane 96:4, /methanol/pentane 92:2:6
Protocol: A synthetic lubricant, specifically polyalkyleneglycol (PAG) lubricant, and more specifically a PAG consisting essentially of 2 or more oxypropylene groups and having a viscosity of from about 10 to about 200 centistokes at about 37° C. (sold under the trade designation ND-8 by Idemitsu Kosan) are added to a vial containing transHFCO-1233zd. […] The properties of the synthetic lubricant ND-8 are identified below in Table 11 below.
A synthetic lubricant, specifically polyalkyleneglycol (PAG) lubricant, and more specifically a PAG consisting essentially of 2 or more oxypropylene groups and having a viscosity of from about 10 to about 200 centistokes at about 37° C. (sold under the trade designation ND-8 by Idemitsu Kosan) are added to a vial containing cisHFCO-1233zd.
The PAG lubricant described in Example 45 above is added to vials containing, respectively, transHFCO-1233zd/methanol in an approximate 98:2 weight ratio, transHFCO-1233zd/pentane in an approximate 96:4 weight ration and transHFCO-1233zd/methanol/pentane in an approximate 92:2:6 weight ratio.
The PAG lubricant described in Example 45 above is added to vials containing, respectively, cisHFCO-1233zd/methanol in an approximate 98:2 weight ratio, cisHFCO-1233zd/pentane in an approximate 96:4 weight ration and cisHFCO-1233zd/methanol/pentane in an approximate 92:2:6 weight ratio.

[5] = Solubility of Artemisinin in the extractant, solvent added to weighed sample until dissolved; assay type: physicochemical
Source text: A medicament, particularly a plant-derived Artemisinin which is an anti-malarial drug, is extracted from the Artemisia annua plant. A sample of Artemisinin was weighed into a vial.

[6] = Miscibility with refrigeration lubricants, sealed glass tubes, visual observation of liquid phases; assay type: physicochemical
Protocol: The miscibility of HFO-1225ye and HFO-1234ze with various refrigeration lubricants is tested. […] For each refrigerant/oil combination, three compositions are tested, namely 5, 20 and 50 weight percent of lubricant, with the balance of each being the compound of the present invention being tested
The lubricant compositions are placed in heavy-walled glass tubes. The tubes are evacuated, the refrigerant compound in accordance with the present invention is added, and the tubes are then sealed. The tubes are then put into an air bath environmental chamber, the temperature of which is varied from about −50° C. to 70° C. At roughly 10° C. intervals, visual observations of the tube contents are made for the existence of one or more liquid phases.

[7] = Solubility of Jasmone in the fluoroolefin, sealed glass tube, frozen and thawed; assay type: physicochemical
Protocol: The compositions of the present invention also provide advantage when used as part of, and in particular as a carrier for, flavor formulations and fragrance formulations. […] 1.73 grams of R-1234ze were added to the glass tube. The tube was then frozen and sealed. […] The solution contained 20 wt. % Jasome and 80 wt. % R-1234ze, thus establishing favorable use a carrier for flavor formulations and fragrances. It also establishes its potential as an extractant of biologically active compounds (such as Biomass) and fragrances, including from plant matter. In certain embodiments, it may be preferred to use the present composition for in extraction applications with the present fluid in its supercritical state. This an other applications of involving use of the present compositions in the supercritical or near supercritical state are described hereinafter.
Approximately 0.39 grams of Jasmone were put into a heavy walled glass tube and approximately 1.73 grams of transHFC-1233zd were added to the glass tube. The tube was then frozen and sealed. […] The solution contained about 20 wt. % Jasome and about 80 wt. % transHFCO-1233zd.
Approximately 0.39 grams of Jasmone are put into a heavy walled glass tube and approximately 1.73 grams of cisHFC-1233zd are added to the glass tube. The tube is then frozen and sealed. […] The solution contains about 20 wt. % Jasmone and about 80 wt. % cisHFCO-1233zd.

[8] = Compatibility/stability of refrigerant with lubricating oil in contact with aluminum, copper and steel coupons, sealed tube, one week, visual observation; assay type: physicochemical; conditions: one week at 350° C., liquid contents turn black
Protocol: The compatibility of the refrigerant compounds and compositions of the present invention with PAG lubricating oils while in contact with metals used in refrigeration and air conditioning systems is tested at 350° C., representing conditions much more severe than are found in many refrigeration and air conditioning applications.
Aluminum, copper and steel coupons are added to heavy walled glass tubes. Two grams of oil are added to the tubes. The tubes are then evacuated and one gram of refrigerant is added. The tubes are put into an oven at 350° F. for one week and visual observations are made. At the end of the exposure period, the tubes are removed.
This procedure was done for the following combinations of oil and the compound of the present invention: • a) HFC-1234ze and GM Goodwrench PAG oil • b) HFC1243 zf and GM Goodwrench oil PAG oil • c) HFC-1234ze and MOPAR-56 PAG oil • d) HFC-1243 zf and MOPAR-56 PAG oil • e) HFC-1225 ye and MOPAR-56 PAG oil.
Aluminum, copper and steel coupons are added to a heavy walled glass tube with mineral oil and CFC-12 and heated for one week at 350° C., as in Example 3. At the end of the exposure period, the tube is removed and visual observations are made.

FC=CC(F)(F)F [HFO-1234ze, 1,1,1,3-tetrafluoropropene]
toxicity [1]: relatively low toxicity
flammability [2]: relatively low flammability

FC(F)(F)/C=C\Cl [transHFCO-1233zd, 1,1,1-trifluo,3-chlororopropene]
solution formed with silicone oil [3]: homogeneous, single-phase solution
concentration of PAG at which a homogeneous, single-phase solution is formed [4]: greater than 10 % by weight

C[C@@H]1CC[C@H]2[C@@H](C)C(=O)O[C@@H]3O[C@@]4(C)CC[C@@H]1[C@]32OO4 [Artemisinin]
solubility in cisHFCO-1233zd (soluble up to) ([5]; solvent cisHFCO-1233zd): approximately 3 weight percent
solubility in transHFCO-1233zd (soluble up to) ([5]; solvent transHFCO-1233zd): approximately 3 weight percent

FC=C(F)C(F)(F)F [HFO-1225ye, 1,1,1,2,3 pentafluoropropene]
degree of toxicity in comparison to CF3CH═CF2 (HFO-1225zc) ([1]; pentafluoropropene with a hydrogen substituent on the terminal unsaturated carbon): relatively low degree of toxicity
miscibility with polyalkylene glycol ([6]; 50 weight percent concentration of the PAG in refrigerant, at 60°): miscible
miscibility with polyalkylene glycol ([6]; at 70° C., from 5 to 50 weight percent lubricant in refrigerant): miscible
miscibility with polyalkylene glycol ([6]; from −20 to 50° C.): partially miscible
miscibility with polyalkylene glycol ([6]; temperature range of −50° C. to −30° C.): immiscible

FC(F)(F)C=CCl [HCFO-1233zd, 1,1,1-trifluo-3,chloro-propene]
toxicity [1]: relatively low toxicity
flammability [2]: relatively low flammability

CC/C=C\CC1=C(C)CCC1=O [Jasmone]
liquid phases of mixture with R-1234ze upon thawing ([7]; 0.39 grams Jasmone and 1.73 grams R-1234ze: 20 wt. % Jasmone, 80 wt. % R-1234ze): one liquid phase
solubility in cisHFCO-1233zd (soluble up to) ([7]; solvent cisHFCO-1233zd, one liquid phase): about 20 weight percent
solubility in transHFCO-1233zd (soluble up to) ([7]; solvent transHFCO-1233zd, one liquid phase): about 20 weight percent

FC(F)(Cl)Cl [CFC-12, Dichlorodifluoromethane]
visual observation of tube contents (stability with mineral oil and metals) [8]: severe decomposition
